How the values were obtained:
Experiment in all cases: relative viability (nuclei count vs DMSO), 5 days (fraction); higher = more cells survive
NCI-H1993 = system: NCI-H1993
Method in brief: (§1)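 Five library-drug doses in √10 steps were combined with a fixed anchor-drug dose, or a single drug was given alone, by pin tool to lung cancer cell lines in 1536-well plates the day after seeding. Nuclei were stained and counted after 5 days. Relative viability is the nuclei count in treated wells over that in vehicle wells, taken as the median of duplicate plates.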

RERF-LC-KJ = system: RERF-LC-KJ
Method in brief: as §1

BEN = system: BEN
Method in brief: as §1

NCI-H1944 = system: NCI-H1944
Method in brief: as §1

LXF-289 = system: LXF-289
Method in brief: as §1

NCI-H727 = system: NCI-H727
Method in brief: as §1

NCI-H2347 = system: NCI-H2347
Method in brief: as §1

NCI-H2087 = system: NCI-H2087
Method in brief: as §1

PC-14 = system: PC-14
Method in brief: as §1

NCI-H2085 = system: NCI-H2085
Method in brief: as §1

NCI-H2228 = system: NCI-H2228
Method in brief: as §1

LC-2-ad = system: LC-2-ad
Method in brief: as §1

HCC-78 = system: HCC-78
Method in brief: as §1

EBC-1 = system: EBC-1
Method in brief: as §1

EMC-BAC-2 = system: EMC-BAC-2
Method in brief: as §1

NCI-H2170 = system: NCI-H2170
Method in brief: as §1

HCC-366 = system: HCC-366
Method in brief: as §1

NCI-H1666 = system: NCI-H1666
Method in brief: as §1

NCI-H1915 = system: NCI-H1915
Method in brief: as §1

NCI-H1650 = system: NCI-H1650
Method in brief: as §1

NCI-H358 = system: NCI-H358
Method in brief: as §1

NCI-H650 = system: NCI-H650
Method in brief: as §1

NCI-H1563 = system: NCI-H1563
Method in brief: as §1

## Nc1cccc2c1CN(C1CCC(=O)NC1=O)C2=O (centres undefined) [Lenalidomide] + CC1(C)CCC(c2ccc(Cl)cc2)=C(CN2CCN(c3ccc(C(=O)NS(=O)(=O)c4ccc(N[C@H](CCN5CCOCC5)CSc5ccccc5)c(S(=O)(=O)C(F)(F)F)c4)cc3)CC2)C1 [Navitoclax] (partner 0.5 µM)
NCI-H1993; first compound 0.253 µM
  relative viability: 0.906
NCI-H1993; first compound 0.8 µM
  relative viability: 0.855
NCI-H1993; first compound 2.53 µM
  relative viability: 0.88
NCI-H1993; first compound 8 µM
  relative viability: 0.797
RERF-LC-KJ; first compound 0.253 µM
  relative viability: 0.959
RERF-LC-KJ; first compound 0.8 µM
  relative viability: 0.736
RERF-LC-KJ; first compound 2.53 µM
  relative viability: 1.02
RERF-LC-KJ; first compound 8 µM
  relative viability: 1.09
BEN; first compound 0.253 µM
  relative viability: 0.0599
BEN; first compound 0.8 µM
  relative viability: 0.0573
BEN; first compound 2.53 µM
  relative viability: 0.0663
BEN; first compound 8 µM
  relative viability: 0.0611
NCI-H1944; first compound 0.253 µM
  relative viability: 0.984
NCI-H1944; first compound 0.8 µM
  relative viability: 1.08
NCI-H1944; first compound 2.53 µM
  relative viability: 1.02
NCI-H1944; first compound 8 µM
  relative viability: 0.873
LXF-289; first compound 0.253 µM
  relative viability: 0.963
LXF-289; first compound 0.8 µM
  relative viability: 0.971
LXF-289; first compound 2.53 µM
  relative viability: 1.01
LXF-289; first compound 8 µM
  relative viability: 1.06
NCI-H727; first compound 0.253 µM
  relative viability: 0.449
NCI-H727; first compound 2.53 µM
  relative viability: 0.387
NCI-H727; first compound 8 µM
  relative viability: 0.345
NCI-H2347; first compound 0.253 µM
  relative viability: 0.788
NCI-H2347; first compound 0.8 µM
  relative viability: 0.747
NCI-H2347; first compound 2.53 µM
  relative viability: 0.842
NCI-H2347; first compound 8 µM
  relative viability: 0.721
NCI-H2087; first compound 0.253 µM
  relative viability: 1.03
NCI-H2087; first compound 0.8 µM
  relative viability: 0.971
NCI-H2087; first compound 2.53 µM
  relative viability: 0.962
NCI-H2087; first compound 8 µM
  relative viability: 1.06
PC-14; first compound 0.253 µM
  relative viability: 0.907
PC-14; first compound 0.8 µM
  relative viability: 1.02
PC-14; first compound 2.53 µM
  relative viability: 1.08
PC-14; first compound 8 µM
  relative viability: 1.05
NCI-H2085; first compound 0.253 µM
  relative viability: 1.25
NCI-H2085; first compound 0.8 µM
  relative viability: 1.16
NCI-H2085; first compound 2.53 µM
  relative viability: 1.26
NCI-H2085; first compound 8 µM
  relative viability: 1.2
NCI-H2228; first compound 0.253 µM
  relative viability: 0.821
NCI-H2228; first compound 0.8 µM
  relative viability: 0.711
NCI-H2228; first compound 2.53 µM
  relative viability: 0.949
NCI-H2228; first compound 8 µM
  relative viability: 0.905
LC-2-ad; first compound 0.253 µM
  relative viability: 0.448
LC-2-ad; first compound 0.8 µM
  relative viability: 0.421
LC-2-ad; first compound 2.53 µM
  relative viability: 0.478
LC-2-ad; first compound 8 µM
  relative viability: 0.44
HCC-78; first compound 0.253 µM
  relative viability: 0.834
HCC-78; first compound 0.8 µM
  relative viability: 0.72
HCC-78; first compound 2.53 µM
  relative viability: 0.842
HCC-78; first compound 8 µM
  relative viability: 0.654
EBC-1; first compound 0.253 µM
  relative viability: 0.374
EBC-1; first compound 0.8 µM
  relative viability: 0.399
EBC-1; first compound 2.53 µM
  relative viability: 0.434
EBC-1; first compound 8 µM
  relative viability: 0.481
EMC-BAC-2; first compound 0.253 µM
  relative viability: 1.18
EMC-BAC-2; first compound 0.8 µM
  relative viability: 1.15
EMC-BAC-2; first compound 2.53 µM
  relative viability: 1.33
EMC-BAC-2; first compound 8 µM
  relative viability: 0.975
NCI-H2170; first compound 0.253 µM
  relative viability: 0.552
NCI-H2170; first compound 0.8 µM
  relative viability: 0.595
NCI-H2170; first compound 2.53 µM
  relative viability: 0.593
NCI-H2170; first compound 8 µM
  relative viability: 0.481
HCC-366; first compound 0.253 µM
  relative viability: 1.02
HCC-366; first compound 0.8 µM
  relative viability: 1.19
HCC-366; first compound 2.53 µM
  relative viability: 1.13
HCC-366; first compound 8 µM
  relative viability: 1.08
NCI-H1666; first compound 0.253 µM
  relative viability: 0.915
NCI-H1666; first compound 0.8 µM
  relative viability: 0.893
NCI-H1666; first compound 2.53 µM
  relative viability: 0.837
NCI-H1666; first compound 8 µM
  relative viability: 0.856
NCI-H1915; first compound 0.253 µM
  relative viability: 0.775
NCI-H1915; first compound 0.8 µM
  relative viability: 0.782
NCI-H1915; first compound 2.53 µM
  relative viability: 0.816
NCI-H1915; first compound 8 µM
  relative viability: 0.835
NCI-H1650; first compound 0.253 µM
  relative viability: 1.06
NCI-H1650; first compound 0.8 µM
  relative viability: 1.22
NCI-H1650; first compound 2.53 µM
  relative viability: 1.4
NCI-H1650; first compound 8 µM
  relative viability: 1.24

## Nc1cccc2c1CN(C1CCC(=O)NC1=O)C2=O (centres undefined) [Lenalidomide] + CS(=O)(=O)N1CCN(Cc2cc3nc(-c4cccc5[nH]ncc45)nc(N4CCOCC4)c3s2)CC1 [Pictilisib] (partner 1 µM)
NCI-H1993; first compound 0.253 µM
  relative viability: 0.824
NCI-H1993; first compound 0.8 µM
  relative viability: 0.827
NCI-H1993; first compound 2.53 µM
  relative viability: 0.872
NCI-H1993; first compound 8 µM
  relative viability: 0.803
RERF-LC-KJ; first compound 0.253 µM
  relative viability: 0.494
RERF-LC-KJ; first compound 0.8 µM
  relative viability: 0.46
RERF-LC-KJ; first compound 2.53 µM
  relative viability: 0.543
RERF-LC-KJ; first compound 8 µM
  relative viability: 0.534
BEN; first compound 0.253 µM
  relative viability: 0.69
BEN; first compound 0.8 µM
  relative viability: 0.504
BEN; first compound 2.53 µM
  relative viability: 0.644
BEN; first compound 8 µM
  relative viability: 0.436
NCI-H1944; first compound 0.253 µM
  relative viability: 0.382
NCI-H1944; first compound 0.8 µM
  relative viability: 0.309
NCI-H1944; first compound 2.53 µM
  relative viability: 0.319
NCI-H1944; first compound 8 µM
  relative viability: 0.287
LXF-289; first compound 0.253 µM
  relative viability: 0.835
LXF-289; first compound 0.8 µM
  relative viability: 0.827
LXF-289; first compound 2.53 µM
  relative viability: 0.864
LXF-289; first compound 8 µM
  relative viability: 0.845
NCI-H727; first compound 0.253 µM
  relative viability: 0.418
NCI-H727; first compound 2.53 µM
  relative viability: 0.44
NCI-H727; first compound 8 µM
  relative viability: 0.306
NCI-H2347; first compound 0.253 µM
  relative viability: 0.396
NCI-H2347; first compound 0.8 µM
  relative viability: 0.634
NCI-H2347; first compound 2.53 µM
  relative viability: 0.602
NCI-H2347; first compound 8 µM
  relative viability: 0.49
NCI-H358; first compound 0.253 µM
  relative viability: 0.399
NCI-H358; first compound 0.8 µM
  relative viability: 0.428
NCI-H358; first compound 2.53 µM
  relative viability: 0.384
NCI-H358; first compound 8 µM
  relative viability: 0.302
NCI-H2087; first compound 0.253 µM
  relative viability: 0.982
NCI-H2087; first compound 0.8 µM
  relative viability: 0.436
NCI-H2087; first compound 2.53 µM
  relative viability: 0.972
NCI-H2087; first compound 8 µM
  relative viability: 0.732
PC-14; first compound 0.253 µM
  relative viability: 0.691
PC-14; first compound 0.8 µM
  relative viability: 0.618
PC-14; first compound 2.53 µM
  relative viability: 0.719
PC-14; first compound 8 µM
  relative viability: 0.713
NCI-H2085; first compound 0.253 µM
  relative viability: 0.451
NCI-H2085; first compound 0.8 µM
  relative viability: 0.409
NCI-H2085; first compound 2.53 µM
  relative viability: 0.428
NCI-H2085; first compound 8 µM
  relative viability: 0.371
NCI-H2228; first compound 0.253 µM
  relative viability: 0.42
NCI-H2228; first compound 0.8 µM
  relative viability: 0.714
NCI-H2228; first compound 2.53 µM
  relative viability: 0.724
NCI-H2228; first compound 8 µM
  relative viability: 0.355
LC-2-ad; first compound 0.253 µM
  relative viability: 0.434
LC-2-ad; first compound 0.8 µM
  relative viability: 0.487
LC-2-ad; first compound 2.53 µM
  relative viability: 0.467
LC-2-ad; first compound 8 µM
  relative viability: 0.538
HCC-78; first compound 0.253 µM
  relative viability: 0.233
HCC-78; first compound 0.8 µM
  relative viability: 0.185
HCC-78; first compound 2.53 µM
  relative viability: 0.232
HCC-78; first compound 8 µM
  relative viability: 0.174
EBC-1; first compound 0.253 µM
  relative viability: 0.398
EBC-1; first compound 0.8 µM
  relative viability: 0.323
EBC-1; first compound 2.53 µM
  relative viability: 0.498
EBC-1; first compound 8 µM
  relative viability: 0.512
EMC-BAC-2; first compound 0.253 µM
  relative viability: 0.532
EMC-BAC-2; first compound 0.8 µM
  relative viability: 0.474
EMC-BAC-2; first compound 2.53 µM
  relative viability: 0.535
EMC-BAC-2; first compound 8 µM
  relative viability: 0.411
NCI-H2170; first compound 0.253 µM
  relative viability: 0.344
NCI-H2170; first compound 0.8 µM
  relative viability: 0.264
NCI-H2170; first compound 2.53 µM
  relative viability: 0.342
NCI-H2170; first compound 8 µM
  relative viability: 0.259
HCC-366; first compound 0.253 µM
  relative viability: 0.131
HCC-366; first compound 0.8 µM
  relative viability: 0.108
HCC-366; first compound 2.53 µM
  relative viability: 0.172
HCC-366; first compound 8 µM
  relative viability: 0.157
NCI-H650; first compound 0.253 µM
  relative viability: 0.822
NCI-H650; first compound 2.53 µM
  relative viability: 0.911
NCI-H650; first compound 8 µM
  relative viability: 0.739
NCI-H1563; first compound 0.253 µM
  relative viability: 0.713
NCI-H1563; first compound 0.8 µM
  relative viability: 0.667
NCI-H1563; first compound 2.53 µM
  relative viability: 0.685
NCI-H1563; first compound 8 µM
  relative viability: 0.638
NCI-H1666; first compound 0.253 µM
  relative viability: 0.471
NCI-H1666; first compound 0.8 µM
  relative viability: 0.372
NCI-H1666; first compound 2.53 µM
  relative viability: 0.495
NCI-H1666; first compound 8 µM
  relative viability: 0.488
NCI-H1915; first compound 0.253 µM
  relative viability: 0.9
NCI-H1915; first compound 0.8 µM
  relative viability: 0.793
NCI-H1915; first compound 2.53 µM
  relative viability: 1
NCI-H1915; first compound 8 µM
  relative viability: 0.857
NCI-H1650; first compound 0.253 µM
  relative viability: 0.562
NCI-H1650; first compound 0.8 µM
  relative viability: 0.441
NCI-H1650; first compound 2.53 µM
  relative viability: 0.731
NCI-H1650; first compound 8 µM
  relative viability: 0.637
